15 compounds from PubChem BioAssay (NCI) can be followed below.

“And” between values parts separate entries of the source, which are not always exact repeats. Equal values may be shown once.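 Exposure lasted 48 hours, with cells grown in 96-well plates and compounds tested at five concentrations. GI50 = concentration required for 50% inhibition of growth. The concentration for full growth arrest is given as TGI.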

Among the test systems are COLO 205 colon; SF-295 CNS; UACC-62 melanoma; UACC-257 melanoma; MOLT-4 leukemia; NCI-H522 lung; SK-MEL-28 melanoma; IGROV1 ovarian; RXF 393 renal; SNB-75 CNS.
Assay in all cases: NCI-60 cell line screen, 48 h

As to `O=S(Nc1ccccc1)c1ccc(N2CCOCC2)cc1` (centres undefined), the TGI with COLO 205 colon is > 100 µM; with SF-295 CNS, > 100 µM; in the assay on UACC-62 melanoma, 99.3 µM; in the assay with UACC-257 melanoma, > 100 µM; in the assay with MOLT-4 leukemia, > 100 µM; in the assay on NCI-H522 lung it was > 100 µM. The TGI in the assay on SK-MEL-28 melanoma and in the assay on IGROV1 ovarian was > 100 µM each time.
As to `CN(C)C(=O)OC1C(=O)N(C)c2ccc(Cl)cc2C2(c3ccccc3)N1C2(Cl)Cl` (centres undefined), the TGI in the assay with COLO 205 colon, in the assay on RXF 393 renal, in the assay on SF-295 CNS, with UACC-62 melanoma, in the assay on UACC-257 melanoma and in the assay on MOLT-4 leukemia was > 100 µM throughout. In addition, the TGI in the assay on NCI-H522 lung, in the assay on SK-MEL-28 melanoma, in the assay with IGROV1 ovarian and in the assay on SNB-75 CNS was > 100 µM each time.
In the case of `O=C(NCCCCCCCCCCCCNC(=O)Nc1cccc2ccccc12)Nc1cccc2ccccc12`, the TGI was 44.1 µM with COLO 205 colon; 30.6 µM in the assay on RXF 393 renal; 27.7 µM in the assay on SF-295 CNS; 26.7 µM in the assay with UACC-62 melanoma; 42.2 µM in the assay with MOLT-4 leukemia; 28.9 µM with NCI-H522 lung. In addition, the values for the TGI in the assay on SK-MEL-28 melanoma, with IGROV1 ovarian and with SNB-75 CNS were 36.3 µM, 36.3 µM and 32.7 µM, respectively.
Consider `CCN(CC)N1C(=O)[N+](CC)(CC)N=C1[O-]`, for which the TGI in the assay with COLO 205 colon, with SF-295 CNS, in the assay on UACC-62 melanoma, in the assay on MOLT-4 leukemia, with NCI-H522 lung and with SK-MEL-28 melanoma was > 100 µM in each case. The TGI in the assay with IGROV1 ovarian and with SNB-75 CNS was > 100 µM throughout.
As for `CCOc1ccc(N/C(=C(/C(Cl)=C(/Cl)N(CC)CC)[N+](=O)[O-])n2nnc3ccccc32)cc1`, the TGI in the assay with COLO 205 colon was 37.2 µM; with RXF 393 renal, 29.2 µM; in the assay on SF-295 CNS, > 100 µM; in the assay on UACC-62 melanoma it was 28.8 µM; in the assay with UACC-257 melanoma, > 100 µM; with MOLT-4 leukemia, > 100 µM. For the same compound, the figures for the TGI in the assay on SK-MEL-28 melanoma and in the assay with SNB-75 CNS were 41.4 µM and 51.2 µM, respectively.
On to `Cc1ccc(/C(O)=C/c2nc3ccccc3sc2=O)c(C)c1`, for which the TGI in the assay on COLO 205 colon was > 100 µM; with RXF 393 renal, 18.2 µM; in the assay with SF-295 CNS, > 100 µM; in the assay with UACC-62 melanoma, > 100 µM; in the assay with UACC-257 melanoma, > 100 µM; in the assay with MOLT-4 leukemia, > 100 µM. The TGI is 62.1 µM with NCI-H522 lung, > 100 µM in the assay with SK-MEL-28 melanoma and > 100 µM with IGROV1 ovarian.
Consider `Cc1cc(C)nc(SC2=C(Nc3ccc(C)c(Cl)c3)C(=O)N(Cc3ccccc3)C2=O)n1`, for which the GI50 in the assay on COLO 205 colon, in the assay on UACC-62 melanoma, in the assay with NCI-H522 lung, in the assay with SK-MEL-28 melanoma and with SNB-75 CNS was > 160 µM in each case. Also, the TGI in the assay on COLO 205 colon, with UACC-62 melanoma, in the assay with NCI-H522 lung, with SK-MEL-28 melanoma and in the assay with SNB-75 CNS was > 160 µM throughout.
In the case of `[Cl][Sn]([c]1ccccc1)([c]1ccccc1)[c]1ccccc1`, the GI50 was 0.161 µM and 0.0196 µM in the assay with RXF 393 renal; 0.196 µM and 0.0263 µM and 0.0229 µM in the assay on SK-MEL-28 melanoma; 0.316 µM and 0.0531 µM with IGROV1 ovarian. Moreover, the TGI in the assay with RXF 393 renal is 0.324 µM and 0.0434 µM; with SK-MEL-28 melanoma, 0.414 µM and 0.146 µM and 0.0808 µM; with IGROV1 ovarian, 0.865 µM and 0.196 µM.
On to `CC(C)=NN/C(=N\S(=O)(=O)c1ccc(Oc2cccc(Cl)c2C#N)cc1)Nc1ccc(Cl)cc1`, for which the TGI with COLO 205 colon, with SF-295 CNS, in the assay with UACC-62 melanoma, with UACC-257 melanoma, with MOLT-4 leukemia and in the assay on NCI-H522 lung was > 100 µM in each case. The TGI in the assay on SK-MEL-28 melanoma and in the assay with IGROV1 ovarian was > 100 µM throughout.
With `COc1ccc2c3c1OC1C(=O)C=CC4(CC2)N(C)CCC314` (centres undefined), the TGI in the assay on COLO 205 colon is 22.7 µM; in the assay with RXF 393 renal, > 100 µM; in the assay on SF-295 CNS, > 100 µM; in the assay on UACC-257 melanoma, > 100 µM; in the assay with MOLT-4 leukemia it was 59 µM; in the assay with NCI-H522 lung, 33 µM. Also, the TGI in the assay with SK-MEL-28 melanoma was 66.1 µM; in the assay on IGROV1 ovarian, > 100 µM; in the assay on SNB-75 CNS it was > 100 µM.
As to `C/C=C/c1cc(=O)c([C@@H]2OC(=O)c3cc(OC)cc(OC)c32)co1`, the TGI in the assay with COLO 205 colon is 55.5 µM; in the assay with RXF 393 renal, > 100 µM; in the assay with SF-295 CNS, > 100 µM; in the assay on UACC-62 melanoma, > 100 µM; with UACC-257 melanoma, > 100 µM; with MOLT-4 leukemia, > 100 µM. The TGI is > 100 µM with SK-MEL-28 melanoma, > 100 µM in the assay on IGROV1 ovarian and 60.3 µM in the assay with SNB-75 CNS.
As to `Cc1cc(S(=O)(=O)N/C(=C(\C#N)C(=O)c2ccc(Cl)cc2)[n+]2ccc(N(C)C)cc2)c([S-])cc1Cl`, the TGI with COLO 205 colon, in the assay on RXF 393 renal, in the assay on SF-295 CNS, in the assay with UACC-62 melanoma, with MOLT-4 leukemia and in the assay on NCI-H522 lung was > 100 µM in each case. Further, the TGI in the assay on SK-MEL-28 melanoma and in the assay with IGROV1 ovarian was > 100 µM each time.
As for `CO/N=C1\CC(NC(=O)CNC(=O)OC(C)(C)C)c2ccsc21` (centres undefined), the TGI in the assay with COLO 205 colon, in the assay on RXF 393 renal, in the assay with SF-295 CNS, in the assay on UACC-62 melanoma, with UACC-257 melanoma and in the assay with MOLT-4 leukemia was > 100 µM each time. The TGI in the assay on SK-MEL-28 melanoma, in the assay on IGROV1 ovarian and in the assay on SNB-75 CNS was > 100 µM in each case.
Consider `Cc1ccc2c(=O)cc(-c3ccc(Cl)s3)[nH]c2n1`, for which the TGI in the assay on COLO 205 colon was 28.8 µM; with RXF 393 renal it was > 25.7 µM; with SF-295 CNS it was 4.85 µM; in the assay on UACC-62 melanoma, > 100 µM; with UACC-257 melanoma it was > 100 µM; in the assay with MOLT-4 leukemia, > 100 µM. Also, the TGI in the assay on SK-MEL-28 melanoma was > 100 µM; in the assay on IGROV1 ovarian, > 100 µM; in the assay with SNB-75 CNS, > 27.9 µM.
On to `COC(OC)[C@@H]1OC[C@H](n2cnc3c(N)ncnc32)[C@H]1O`, for which the TGI with COLO 205 colon, in the assay with RXF 393 renal, in the assay on SF-295 CNS, with UACC-62 melanoma, in the assay with UACC-257 melanoma and in the assay with MOLT-4 leukemia was > 100 µM each time. Also, the TGI with SK-MEL-28 melanoma, in the assay on IGROV1 ovarian and with SNB-75 CNS was > 100 µM in each case.
